Measured values taken from PMC12247020, “A Cyclized Helix‐Loop‐Helix Peptide as a Molecular Scaffold for Cell‐Membrane Permeable Inhibitors for the Interaction Between Estrogen Receptor α and Coactivator SRC1” (Chembiochem, 2025).
Like-named read-outs stand apart in the source and are kept apart here. Values belong to the molecule of their own block, whether it stands above or below them. Bridge positions count the residues as written; N and C are the ends. Peptide text beside a SMILES is read from it. * marks the point of attachment. X1 = CN(C)c1ccc2c(c1)Oc1cc(N(C)C)ccc1C21OC(=O)c2cc(NC(=O)C*)ccc21

Legend:
[1] = system: MCF‐7 breast cancer cells; test: Live cell confocal laser microscopy of TMR‐labeled peptides (cell membrane permeability); settings: MCF‐7 cells, 3 μM TMR‐labeled peptide
ERα/LBD (ERα302–552) = target: T1, ERα/LBD (ERα302–552) (Homo sapiens, UniProt P03372); test: Fluorescence polarization (FP) direct binding of fluorescently labeled peptides to ERα/LBD
T1 construct: Recombinant ERα/LBD (ERα^302–552) was prepared as previously reported; made in house; host or cells: Escherichia coli BL21-CodonPlus-RP
T1 sequence (P03372 302-552): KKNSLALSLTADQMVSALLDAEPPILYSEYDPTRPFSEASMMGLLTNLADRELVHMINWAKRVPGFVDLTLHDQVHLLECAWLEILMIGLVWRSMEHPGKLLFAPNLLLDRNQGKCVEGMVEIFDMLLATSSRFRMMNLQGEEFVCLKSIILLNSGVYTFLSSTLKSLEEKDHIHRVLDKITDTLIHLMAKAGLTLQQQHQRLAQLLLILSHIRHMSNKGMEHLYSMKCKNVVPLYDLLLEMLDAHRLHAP
Procedure: The binding activity of cHLH‐ERα was examined by fluorescence polarization (FP) analysis.^[ [26], [29] ^] The cHLH peptides were labeled with tetramethylrhodamine (TMR) to provide the fluorescent cHLH peptide TMR‐cHLH‐ERα, and fluorescent TMR‐YT1‐RS as a negative control (Figure 1, Figure S2, Supporting Information).
1. Protein Expression and Purification
The plasmid encoding the LBD domain of ERα (ERα302-552), was prepared from the plasmid pF1KB7810 (Kazusa DNA Res. Inst. ) encoding the full length of Estrogen Receptor α as described by using pET -28a(+)vector [1]. […]
4. Fluorescence Polarization […]
Tris-HCl (pH 8.0), 25 mM NaCl, 10%(v/v) Glycerol, 1 mM TCEP as described. The concentration of FL-SRC1Box2 labeled with Fluorescein and TMR-cHLH-ERα and YT1-RS were determined from the absorption of Fluorescein or Tetramethylrhodamine. The respective peptide was incubated with ERα-LBD for 30 min in 20 mM Tris-HCl (pH 8.0), 25 mM NaCl with 1 mM 17β-estradiol, and the mixture was transferred into a 384-well microtiter well (Non-binding, Black, greiner bio -one) and the fluorescence polarization was measured on a spectrofluorometer (SpectraMax iD5, Molecular Devices) at 20 °C. The KD values were analyzed via a quadratic binding equation (Fig S5A, S5B) with the data fit to calculate by using KaleidaGraph 4.0 as described elsewhere. […]

Molecule: CC(C)C[C@@H]1NC(=O)[C@H](C)NC(=O)[C@H](C)NC(=O)[C@H](CC(C)C)NC(=O)[C@H](CCCCN)NC(=O)[C@H](C)NC(=O)[C@H](CCCCN)NC(=O)[C@H](CC(C)C)NC(=O)[C@H](C)NC(=O)[C@H](C)NC(=O)[C@H](CC(C)C)NC(=O)[C@H](CCCCN)NC(=O)CNC(=O)CNC(=O)CNC(=O)CNC(=O)CNC(=O)CNC(=O)CNC(=O)[C@H](CCC(=O)O)NC(=O)[C@H](CC(C)C)NC(=O)[C@H](CCCNC(=N)N)NC(=O)[C@H](CCCNC(=N)N)NC(=O)[C@H](CC(C)C)NC(=O)[C@H](CCC(=O)O)NC(=O)[C@H](CCCNC(=N)N)NC(=O)[C@H](CCC(=O)O)NC(=O)[C@H](CC(C)C)NC(=O)[C@H](CCCNC(=N)N)NC(=O)[C@H](CCCNC(=N)N)NC(=O)[C@H](CC(C)C)NC(=O)[C@H](CCC(=O)O)NC(=O)[C@H](CCCNC(=N)N)NC(=O)[C@H](CSCC(=O)Nc2ccc3c(c2)C(=O)OC32c3ccc(N(C)C)cc3Oc3cc(N(C)C)ccc32)NC(=O)CNC(=O)CSC[C@@H](C(N)=O)NC(=O)[C@H](Cc2ccc(O)cc2)NC(=O)[C@H](C)NC(=O)[C@H](CCCCN)NC1=O [TMR‐YT1‐RS] ({CH2CO}-GC(X1)RELRRLERELRRLEGGGGGGGKLAALKAKLAALKAYC-NH2; thioether N-39)
cell membrane permeability, confocal laser microscopy, 4 °C ([1]; 4 °C (pre‐chilled medium), fluorescence imaging): showed cell membrane permeability
cell membrane permeability, confocal laser microscopy, 37 °C ([1]; 5‐min incubation, 37 °C, 5% CO2, nuclei stained with Hoechst 33 342, fluorescence imaging): showed cell membrane permeability

Molecule: CC(C)C[C@@H]1NC(=O)[C@H](C)NC(=O)[C@H](C)NC(=O)[C@H](CC(C)C)NC(=O)[C@H](CCCCN)NC(=O)CNC(=O)CNC(=O)CNC(=O)CNC(=O)CNC(=O)CNC(=O)CNC(=O)[C@H](CCC(=O)O)NC(=O)[C@H](CC(C)C)NC(=O)[C@H](CCCNC(=N)N)NC(=O)[C@H](CCCNC(=N)N)NC(=O)[C@H](CC(C)C)NC(=O)[C@H](CCC(=O)O)NC(=O)[C@H](CCCNC(=N)N)NC(=O)[C@H](CCC(=O)O)NC(=O)[C@H](CC(C)C)NC(=O)[C@H](CCCNC(=N)N)NC(=O)[C@H](CCCNC(=N)N)NC(=O)[C@H](CC(C)C)NC(=O)[C@H](CCC(=O)O)NC(=O)[C@H](CCCNC(=N)N)NC(=O)[C@H](CSCC(=O)Nc2ccc3c(c2)C(=O)OC32c3ccc(N(C)C)cc3Oc3cc(N(C)C)ccc32)NC(=O)CNC(=O)CSC[C@@H](C(N)=O)NC(=O)[C@H](Cc2ccc(O)cc2)NC(=O)[C@H](C)NC(=O)[C@H](CCCCN)NC(=O)[C@H](CC(C)C)NC(=O)[C@H](CC(C)C)NC(=O)[C@H](CC(C)C)NC(=O)[C@H](CC(C)C)NC(=O)[C@H](CCCCN)NC(=O)[C@H](CC(C)C)NC(=O)[C@H](CCCCN)NC1=O [TMR‐cHLH‐ERα] ({CH2CO}-GC(X1)RELRRLERELRRLEGGGGGGGKLAALKLKLLLLKAYC-NH2; thioether N-39)
Kd (ERα/LBD (ERα302–552)): 0.285 µM

Kd (ERα/LBD (ERα302–552); FP, 20 nM labeled peptide, in the presence of 17β‐estradiol, 20 mM Tris-HCl pH 8.0, 25 mM NaCl, 30 min, 20 °C, quadratic binding equation (Fig S5A), read-out: K D value, binding to ERα/LBD): 7.8 µM
Molecule: CH3CO-C(FL)QLLTERHKILHRLLQEGSPSD-NH2 (Ac-C(fluorescein)QLLTERHKILHRLLQEGSPSD-NH2; not fully specified; printed as CH3CO-C(FL)QLLTERHKILHRLLQEGSPSD-NH2) [FL‐SRC1Box2, fluorescently labeled SRC1 box 2 peptide with the LXXLL motif, FP tracer, reference compound]
